Patent publication US20200022967A1, “Use of 2-carboxamide cycloamino urea derivatives in the treatment of EGFR dependent diseases or diseases that have acquired resistance to agents that target EGFR family members” (Novartis AG, priority 2010, published 2020)

Tests used:
BT474 = experiment: Cell proliferation in BT474 breast cancer model; assay type: cell-based, human
HCC1954 = experiment: Cell proliferation in HCC1954 breast cancer model; assay type: cell-based
BT-474 tumors = experiment: BT474 orthotopic xenograft, Compound A and trastuzumab combination (Example 3); assay type: in vivo, mice
Experimental: The Compound was fully dissolved in NMP. Then, PEG300 and liquified Solutol were added (in sequence with vortexing after addition of each reagent).
Where applicable, data is presented as mean±SEM.

[1] = Body weight in BT474 combination study (Example 3); assay type: in vivo, mice; conditions: Compound A 50 mg/kg p.o. daily, single agent; significant
Experimental: Tumor volumes were measured with calipers and determined according to the formula: length×diameter^2×π/6. […] Regressions (%) were calculated according to the formula ((mean tumor volume at end of treatment-mean tumor volume at start of treatment)/mean tumor volume at start of treatment)×100. Body weights and tumor volumes were recorded twice a week.
Where applicable, data is presented as mean±SEM. For all tests, the level of significance was set at p<0.05. For tumor volumes, comparisons between treatment groups and vehicle control group were done using one-way ANOVA followed by Dunnett's test. The level of significance of body weight change within a group between the start and the end of the treatment period was determined using a paired t-test. Comparisons of delta body weights between treatment and vehicle control groups were performed by a one-way ANOVA followed by a post hoc Dunnett's test.

NCI-N87 tumors = experiment: NCI-N87 xenograft in CB17 SCID mice, Compound A alone and with trastuzumab (Example 4); assay type: in vivo
Experimental: Experiments were performed in female CB17 SCID mice (Fox Chase SCID®, CB17/lcr-Prkdc^scid, Charles River) approximately 7-8 weeks of age and having a body weight (BW) range of 14.7-21.2 g at treatment start. All animals were fed ad libitum water (reverse osmosis, 1 ppm CI) and NIH 31 Modified and Irradiated Lab Diet® consisting of 18.0% crude protein, 5.0% crude fat, and 5.0% crude fiber. The mice were housed on irradiated Enrich-O'cobs™ Laboratory Animal Bedding in static microisolators on a 12-hour light cycle at 21-22° C. and 40-60% humidity.
NCI-N87 cells (obtained from the American Type Culture Collection), which are of gastric origin and ErbB2 amplified, were maintained as exponentially growing cultures in RPMI-1640 medium supplemented with 10% fetal bovine serum, 2 mM glutamine, 100 units/mL penicillin G sodium, and 100 μg/mL streptomycin sulfate. The tumor cells were cultured in tissue culture flasks in a humid incubator at 37° C., in an atmosphere of 5% CO2 and 95% air. Cells were harvested with 1× trypsin and suspended at a concentration of 5×10^7 cells/mL in cold phosphate-buffered saline with 50% Matrigel. Each mouse was injected subcutaneously in the right flank with 1×10^7 cells (0.2 mL cell suspension). Tumor volumes were measured with calipers and determined according to the formula: width^2×length/2, and tumor weight estimated with the assumption that 1 mg is equivalent to 1 mm^3 of tumor volume. Nine days after tumor implantation (on Day 1 of the study), mice with individual tumor volumes of 126-320 mm^3 were sorted into 12 groups of eight mice with a group mean tumor volume of 231-239 mm^3.
Compound A was formulated in NMP/PEG300/Solutol HS15/deionized water (10:30:20:40% vol/vol). The Compound was fully dissolved in NMP. Then, PEG300 and liquified Solutol were added (in sequence with vortexing after addition of each reagent). Water was added prior to administration to the animals. Fresh dosing solutions were prepared weekly and stored at 4° C., protected from light.
Treatments started 9 days post tumor cell implantation and lasted for 30 consecutive days (or until tumor volume=2000 mm^3).
Where applicable, data is presented as mean±SEM. Statisticial and graphical analyses was performed with Prism 3.03 (GraphPad) for Windows. For all tests, the level of significance of differences was done using ANOVA, with Bartlett's test; and a post-hoc Dunnett's multiple comparison test compared the mean change for each drub-treated group to the mean for Group 1. […] The significance of differences between the median volume changes for drug-treated groups and Group 1 was analyzed post hoc with Dunn's multiple comparison test. The two-tailed statistical analyses were conducted at P=0.05. Prism summarizes test results as not significant (ns) at P>0.05, significant (symbolized by “*”) at 0.01<P≤0.05, very significant (symbolized by “**”) at 0.001<P≤0.01, and extremely significant (symbolized by “***”) at P≤0.001.

HBCx-5 xenograft tumor = experiment: HBCx-5 breast cancer xenograft, antitumor activity (Example 5); assay type: in vivo, mice; conditions: Compound A 50 mg/kg p.o. daily for 42 days, single agent; p<0.001
Experimental: Compound A was suspended at mg/ml in 0.5% methylcellulose (Sigma Aldrich, St. Louis, Mo.). It was homogenized by stirring vortexing and sonication. The suspension was stored at 4° C. for 7 days protected from light. […] Stock solution at 21 mg/ml was diluted just before administration at 1 mg/ml with sterile water for injection. Capecitabine (Xeloda®, Roche) at […] was kept at 4° C. protected from light. Capecitabine pellets were crushed and suspended in NaCl 0.9%.
Dose was body weight adjusted at each injection.
Capecitabine was administered by oral gavage (p.o.) at […], five times per week for two weeks (i.e., five consecutive dosing days/week). After a one week rest, a second treatment cycle was performed.

[2] = Group 2 (8 animals): Compound A 12.5 mg/kg p.o. once daily
[3] = Group 3 (6 animals): Compound A 25 mg/kg p.o. once daily
[4] = Group 4 (4 animals): Compound A 50 mg/kg p.o. once daily, stopped early

Structure (SMILES): Cc1nc(NC(=O)N2CCC[C@H]2C(N)=O)sc1-c1ccnc(C(C)(C)C(F)(F)F)c1 [Compound A, (S)-Pyrrolidine-1,2-dicarboxylic acid 2-amide 1-({4-methyl-5-[2-(2,2,2-trifluoro-1,1-dimethyl-ethyl)-pyridin-4-yl]-thiazol-2-yl}-amide)]
- cell death (BT474; BT474, overexpressed ErbB2): induces cell death
- GI50 (BT474; BT474 breast cancer model, ErbB2 amplified, read-out: median GI50): 0.139 ± 0.082 µM
- cell death (HCC1954; HCC1954, overexpressed ErbB2): induces cell death
- GI50 (HCC1954; HCC1954 breast cancer model, read-out: median GI50): 0.687 ± 0.132 µM
- Change Tumor Volume (BT-474 tumors; B: Compound A 12.5 mg/kg p.o. daily, control C 584.2): 125.7
- T/C (BT-474 tumors; Compound A 12.5 mg/kg p.o. daily, single agent): 21.5%
- antitumor effect (BT-474 tumors; Compound A 50 mg/kg p.o. daily, single agent, p<0.05 Mann-Whitney): statistically significant antitumor effect
- B/C (BT-474 tumors; change tumor volume ratio, Compound A 12.5 mg/kg vs control): 0.215
- body weight loss [1]: about 12%
- Regressions CR (complete regression) (NCI-N87 tumors; [2]): CR: 0
- Regressions PR (partial regression) (NCI-N87 tumors; [2]): PR: 0,
- T/C or T/T0 (NCI-N87 tumors; Group 2 (8 animals): Compound A 12.5 mg/kg p.o. once daily, vs G1 ns): 46%
- Regressions CR (complete regression) (NCI-N87 tumors; [3]): CR: 0
- Regressions PR (partial regression) (NCI-N87 tumors; [3]): PR: 0,
- T/C or T/T0 (NCI-N87 tumors; Group 3 (6 animals): Compound A 25 mg/kg p.o. once daily, vs G1 *): 12%
- Regressions CR (complete regression) (NCI-N87 tumors; [4]): CR: 0
- Regressions PR (partial regression) (NCI-N87 tumors; [4]): PR: 0,
- T/C or T/T0 (NCI-N87 tumors; Group 4 (4 animals): Compound A 50 mg/kg p.o. once daily, stopped early, vs G1 ne): 81%
- T/C (HBCx-5 xenograft tumor): 17.57%
